Test results as given in PMC8012331, “Drug-induced hepatic steatosis in absence of severe mitochondrial dysfunction in HepaRG cells: proof of multiple mechanism-based toxicity” (Cell Biology and Toxicology, 2020).
Values joined by “and” are separate entries in the source; they are usually repeats but may differ in a detail not shown here. Equal values may be shown once. Read-outs that look alike come from different tables or passages of the source.

Key:
[1] = Maximum plasma concentration (Cmax) in patients; assay type: in vivo, human; settings: worked out from cited Cmax in patients
[2] = tested on: de novo lipogenesis (DNL); assay: DNL from [2-14C]acetic acid in HepaRG cells; assay type: cell-based, human; settings: 4 days, vs control
Description: (§1) Experiments were carried out on passages 9 to 16. […] DPEN was dissolved in water.
DNL was assessed by measuring newly synthesized radiolabeled lipids from [2-^14C]acetic acid, using a protocol adapted from Byrne et al. ([2014]). Briefly, culture medium was removed and cells were washed with warm PBS. Next, cells were incubated for 3 h with phenol red-free William’s E medium containing 1% fatty acid-free BSA, [2-^14C]acetic acid (1850 Bq per well, corresponding to 19.4 pM) and 50 μM cold acetic acid. Medium was then gently removed and cells were washed with warm PBS before adding a mix of hexane/isopropanol (3:2; v/v). Cell culture plates were sealed and incubated for 1 h at room temperature for lipid extraction. After transfer of the plate content in 200-μL microtubes, hexane and PBS were added to have a hexane/isopropanol/PBS ratio of 6:2:3 (v/v/v). Microtubes were then centrifuged at 1000×g for 5 min and radiolabeled lipids were counted in the upper phase with a Tri-Carb 4910TR liquid scintillation counter (PerkinElmer). Results were normalized to total protein content and expressed in comparison to control cells.

[3] = tested on: primary human hepatocytes (PHH); assay: Neutral lipids with Nile red in primary human hepatocytes; assay type: cell-based; settings: 4 days
Description: Primary human hepatocytes (PHH) were purchased from Biopredic International (Saint-Grégoire, France). Cells were seeded by the supplier in coated 96-well plates at a density of 5 × 10^4 cells/well. Upon receipt, culture medium was removed and replaced by William’s E medium supplemented as previously described for HepaRG cell differentiation, except for DMSO set at 1%. After 2–3 days, cells were treated as for HepaRG cells. For HepaRG cells and PHH, cells were always maintained in incubators at 37 °C with 5% CO2 and saturating humidity.
(§2) Cells were then incubated with PBS containing 0.1 μg/mL Nile red for 30 min and washed once. […] For each well, four pictures were taken at a magnification of × 20 and analyzed with Columbus software (PerkinElmer) for quantification. These pictures were always taken in four different areas around the center of each well, and these areas were the same from one well to another, as programmed by the Columbus software. This software was also designed to count only living cells after exclusion of dying cells harboring nuclei with abnormal shape or altered Hoechst intensity. […] Neutral lipids were then normalized per number of nuclei and expressed relative to control cells. Examples of images used for neutral lipid quantification are shown in Supplementary Fig. 2.

[4] = tested on: apoB secretion; assay: apoB level in culture medium (ELISA), HepaRG cells; assay type: cell-based, human; settings: 4 days, culture medium, vs control
Description: as §1
Twenty-four hours after the last treatment, cell supernatants were removed and stored at − 80 °C until use for apolipoprotein measurement. ApoB level was measured using the Human Apolipoprotein B ELISA^pro kit from Mabtech (Nacka Strand, Sweden), according to the manufacturer’s instructions. Briefly, 50 μL of samples were diluted 2× in Apo ELISA buffer before a 2-h incubation in the precoated strip plates provided in the kit. The plates were washed and incubated 1 h with the biotinylated monoclonal anti-human apoB (LDL-11-biotin) antibody. The plates were then washed and incubated 1 h with a streptavidin–horseradish peroxidase conjugated antibody. After another washing, 3,3′,5,5′-tetramethylbenzidine (TMB) was used as substrate for 15 min before adding a stop solution. Absorbance at 450 nm was then measured using a POLARstar Omega microplate reader (BMG Labtech, Ortenberg). ApoB level was calculated utilizing a four-parameter standard curve, and normalized to the total cellular protein content and expressed in comparison to control cells.

[5] = tested on: mitochondrial fatty acid oxidation (mtFAO); assay: mtFAO with [U-14C]palmitic acid in HepaRG cells; assay type: cell-based, human; settings: 4 days, vs control
Description: as §1
Results were normalized to total protein content determined using the Pierce BCA assay kit from Thermo Fischer Scientific (Waltham, MA). Results were expressed in comparison to control cells.

[6] = patients, ref given per drug, cited from earlier work; for Cmax: read-out: Maximum plasma concentration (Cmax) in patients
[7] = tested on: HepaRG cells; assay: Cellular ATP level (CellTiter-Glo) in HepaRG cells; assay type: cell-based, human; settings: 4 days, vs controls
Description: Cellular ATP level was measured using the CellTiter-Glo® Luminescent Cell Viability assay purchased from Promega (Charbonnières, France), according to the manufacturer’s instructions. Briefly, control and treated HepaRG cells were first washed with warm PBS and kept for 30 min at room temperature in phenol red-free William’s E medium. Cells were next incubated with the CellTiter-Glo® reagent for 10 min at room temperature. Cells were then transferred in opaque-walled multiwell plates and the luminescent signal was quantified using a POLARstar Omega microplate reader (BMG Labtech, Ortenberg, Germany). Results were expressed in comparison to control cells.

[8] = tested on: HepaRG cells; assay: Neutral lipids with Nile red in HepaRG cells; settings: 4 days
Description: (§3) Briefly, HepaRG cells were seeded in 96-well plates at a density of 2.6 × 10^4 cells/cm^2 and were first incubated in William’s E medium supplemented with 10% FBS (50% FBS from Eurobio and 50% FBS from GE Healthcare), 100 U/mL penicillin, 100 μg/mL streptomycin, 2 mM glutamine, 5 μg/mL insulin, and 50 μM hydrocortisone hemisuccinate. […] During this 1-month period, the culture medium was renewed three times a week. […] HepaRG cells were next cultured in the same FBS/DMSO conditions and incubated for 4 days with each drug at different concentrations. Culture medium was renewed every day and all investigations were performed after 96 h (i.e., 24 h after the fourth treatment). These investigations were mostly performed in 96-well plates except for western blot analysis, for which 6-well plates were used. Experiments were carried out on passages 9 to 16. All drugs (except DPEN), etomoxir, lomitapide, tunicamycin, thapsigargin, and TUDCA were dissolved in DMSO. DPEN was dissolved in water.
as §2

[9] = treated patients, ref Schulz M et al., Crit Care 2012 ;16(4):R136, cited from earlier work
[10] = tested on: ERN1 (IRE1α); assay: RT-qPCR ERN1 mRNA in HepaRG cells; assay type: cell-based, human; settings: 4 days, vs control
Description: Total RNA was extracted with the Nucleospin RNA isolation system purchased from Macherey-Nagel (Düren, Germany), which included a DNase treatment step. Quantification of isolated RNAs was assessed using a Nanodrop 1000 (Thermo Fisher Scientific, Waltham, MA). RNAs were reverse-transcribed into cDNAs using the High-Capacity cDNA Reverse Transcription Kit purchased from Applied Biosystems (Woolston, UK). Gene expression was assessed by real-time quantitative PCR analysis (RT-qPCR) using SYBR Green PCR Master Mix (Applied Biosystems) and a 384-well QuantStudio™ 7 Flex Real-Time PCR System (Thermo Fisher Scientific). Sequences of the primers used to measure gene expression are presented in Supplementary Table 3. Expression of GAPDH was chosen as reference and the 2^−ΔΔCt calculation method was used to express the relative expression of each selected gene.

[11] = tested on: apoC3 secretion; assay: apoC3 level in culture medium (HTRF), HepaRG cells; assay type: cell-based, human; settings: 4 days, culture medium, vs control
Description: as §3
Apolipoprotein C3 (apoC3) level was measured using the Human Apolipoprotein C3 kit from Cisbio Bioassays (Codolet, France), according to the manufacturer’s instructions. Briefly, 10 μL of supernatants was incubated with two different specific anti-human apoC3 antibodies, one donor and one acceptor. The detection principle of apoC3 is based on HTRF® (Homogeneous Time Resolved Fluorescence), a time-resolved FRET (Förster Resonance Energy Transfer) technology. After 2 h of incubation, light emission was measured with the Infinite F Nano+ microplate reader (Tecan, Männedorf, Switzerland). ApoC3 level was calculated utilizing standard curve, based on the ratio of A665 nm/A615 nm, and normalized to the total cellular protein content. Results were expressed in comparison to control cells.

[12] = selected concentrations (ATP loss < 30%, not above 100 × Cmax), vs control

| SMILES | Concentration corresponding to 100xCmax [1] [µM] | Effect on DNL [2] | Effect on apoB secretion [4] | Effect on mtFAO [5] | Maximum plasma concentration (Cmax) in patients [6] [ng/mL] | Cmax [6] [µM] | Loss of cellular ATP relative to the maximum concentration selected for the study [7] | Accumulation of neutral lipids (steatosis) [8, 12] | Effect on apoC3 secretion [11] | other results |
| --- | --- | --- | --- | --- | --- | --- | --- | --- | --- | --- |
| O=c1[nH]cc(F)c(=O)[nH]1 [5FU, 5-fluorouracil] | 42000 | curb this metabolic pathway | reduced the secretion | significantly enhance mtFAO | ≤ 55000 | ≤ 420 | 100 µM (loss of cellular ATP above 30% of the controls for higher concentrations, as shown in Supp. fig 1) | significant accumulation of neutral lipids | reduced the secretion | Steatosis in PHH batches (six batches tested) [3]: induced steatosis in only one PHH batch; Therapeutic blood (or plasma) concentration in patients ([9]; listed as 5-Fluorouracil (5FU)): 0.05 - 0.3 mg/L and 0.38 - 2.3 µM; ERN1 (IRE1α) mRNA level [10]: enhanced IRE1α mRNA level |
| Oc1ncnc2[nH]ncc12 [ALLO, allopurinol] | 1500 | curb this metabolic pathway | reduced the secretion | significantly enhance mtFAO | ≤ 2050 | ≤ 15 | 750 µM (loss of cellular ATP above 30% of the controls for higher concentrations, as shown in Supp. fig 1) | significant accumulation of neutral lipids | reduced the secretion | Steatosis in PHH batches (six batches tested) [3]: accumulation of neutral lipids in five PHH batches; Therapeutic blood (or plasma) concentration in patients ([9]; listed as Allopurinol (ALLO)): 2 - 19 mg/L and 15 - 140 µM; ERN1 (IRE1α) mRNA level [10]: enhanced IRE1α mRNA level |
| CC(C)(S)[C@@H](N)C(=O)O [DPEN, D-penicillamine] | 2500 |  |  |  | ≤ 3760 | ≤ 25 | 2500 µM (slight loss of cellular ATP for this concentration, as shown in Supp. fig 1) | did not induce steatosis |  | Accumulation of neutral lipids (steatosis) ([8]; concentrations above 100 × Cmax (100 μM NIF, 5000 μM DPEN)): significant accumulation of neutral lipids; Therapeutic blood (or plasma) concentration in patients ([9]; listed as D-penicillamine (DPEN)): 1.7 - 5.6 mg/L and 11.4 - 37.6 µM |
| CC(C)(C)NC(=O)[C@@H]1CN(Cc2cccnc2)CCN1C[C@@H](O)C[C@@H](Cc1ccccc1)C(=O)N[C@H]1c2ccccc2C[C@H]1O [INDI, indinavir] | 1300 | curb this metabolic pathway | reduced the secretion |  | ≤ 8000 | ≤ 13 |  | significant accumulation of neutral lipids | reduced the secretion |  |
| Cn1cc[nH]c1=S [METHI, methimazole] |  |  |  |  | ≤ 1500 | ≤ 13 |  | did not induce steatosis |  | Therapeutic blood (or plasma) concentration in patients ([9]; listed as Methimazole (METHI)): 0.5 - 2.5 mg/L and 4.4 - 22 µM |
| COC(=O)C1=C(C)NC(C)=C(C(=O)OC)C1c1ccccc1[N+](=O)[O-] [NIF, nifedipine] |  |  |  |  |  |  |  |  |  | Therapeutic blood (or plasma) concentration in patients ([9]; listed as Nifedipine (NIF)): 0.025 - 0.15 mg/L and 0.07 - 0.43 µM |
| CCOC(=O)[C@@]1(CCCCCCOc2ccc(Cl)cc2)CO1 [etomoxir, (+)-etomoxir] |  |  |  | blocked |  |  |  |  |  |  |
| O=C(NC1CCN(CCCCC2(C(=O)NCC(F)(F)F)c3ccccc3-c3ccccc32)CC1)c1ccccc1-c1ccc(C(F)(F)F)cc1 [lomitapide] |  |  | inhibited |  |  |  |  |  |  |  |
